Measurements as given in article PMC6391970, “Design, Synthesis and Characterization of Covalent KDM5 Inhibitors” (Angewandte Chemie (International Ed. in English), 2018).

Assays:
KDM4A = molecular target: T1, KDM4A (Homo sapiens, UniProt O75164); test: KDM AlphaScreen selectivity panel, KDM4A; format: biochemical; details: for IC50: AlphaScreen after 120 min pre-incubation, read-out: KDM IC50 4A; for SI over KDM5B, 4A: KDM4A IC50/KDM5B IC50
T1 sequence (O75164 1-1064): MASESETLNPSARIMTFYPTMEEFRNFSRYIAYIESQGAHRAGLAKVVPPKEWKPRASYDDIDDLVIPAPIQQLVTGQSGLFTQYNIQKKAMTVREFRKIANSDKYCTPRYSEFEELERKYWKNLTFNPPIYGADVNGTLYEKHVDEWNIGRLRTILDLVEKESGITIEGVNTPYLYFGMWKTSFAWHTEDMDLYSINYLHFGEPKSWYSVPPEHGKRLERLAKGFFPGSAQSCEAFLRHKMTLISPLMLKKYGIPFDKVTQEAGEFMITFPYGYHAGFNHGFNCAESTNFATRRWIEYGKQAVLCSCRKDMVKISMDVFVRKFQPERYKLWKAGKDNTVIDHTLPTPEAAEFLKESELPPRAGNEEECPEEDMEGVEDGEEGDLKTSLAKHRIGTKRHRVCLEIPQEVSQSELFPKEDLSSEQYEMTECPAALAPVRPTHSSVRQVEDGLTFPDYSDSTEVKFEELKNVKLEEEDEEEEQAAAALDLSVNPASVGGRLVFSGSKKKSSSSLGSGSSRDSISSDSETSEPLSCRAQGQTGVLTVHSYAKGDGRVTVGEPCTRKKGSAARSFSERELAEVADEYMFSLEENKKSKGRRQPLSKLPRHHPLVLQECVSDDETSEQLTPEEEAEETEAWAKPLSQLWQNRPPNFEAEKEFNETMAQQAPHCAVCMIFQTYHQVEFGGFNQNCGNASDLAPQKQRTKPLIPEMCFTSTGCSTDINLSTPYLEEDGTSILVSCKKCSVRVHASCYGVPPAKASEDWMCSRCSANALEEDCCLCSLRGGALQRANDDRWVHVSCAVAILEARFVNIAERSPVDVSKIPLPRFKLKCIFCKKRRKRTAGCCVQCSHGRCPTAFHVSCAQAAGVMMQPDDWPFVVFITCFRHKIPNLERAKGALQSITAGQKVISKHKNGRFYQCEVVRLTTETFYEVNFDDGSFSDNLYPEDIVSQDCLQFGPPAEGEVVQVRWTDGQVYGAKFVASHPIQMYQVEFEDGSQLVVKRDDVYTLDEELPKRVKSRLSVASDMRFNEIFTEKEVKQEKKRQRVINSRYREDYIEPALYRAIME
Protocol: (§1) A panel of JmjC KDMs was tested by AlphaScreen to determine the selectivity of the compounds (Table S2). […]
(§2) KDM alpha screen selectivity
(§3) Inhibition of histone demethylases was assessed using the histone demethylase AlphaScreen assay (Amplified Luminescence Proximity Homogenous Assay) as previously reported.[4] The basis of this assay for lysine demethylases have been widely described.[5] In brief, the assay was performed in 384-well plate format using white proxiplates (PerkinElmer), and transfer of titrations of compounds (100 nl) was performed using an ECHO 550 acoustic dispenser […]
(§4) Tween- 20) containing the appropriate demethylase enzyme (see Supplementary table 1 for final concentrations) was transferred to each well of a 384-well proxiplate with a Multidrop™ Combi Reagent Dispenser, and the enzymes allowed to pre-incubate for 120 minutes with compound (final concentration of DMSO was 1%). After that time, the enzyme reaction was initiated by addition of 5 µl of a substrate mix consisting of Ketoglutarate (2-OG), Ferrous Ammonium Sulphate (FAS), L-Ascorbic Acid (LAA) and biotinylated peptide substrate (see Supporting table X for final assay concentrations) and the reaction incubated for the indicated time at room temperature. Reaction was stopped by the addition of 5 μl of assay buffer containing EDTA (7.5 mM) and NaCl (400 mM). Streptavidin Donor beads (0.08 mg/ml) and Protein-A conjugated acceptor beads (0.08 mg/ml) (AlphaScreen General IgG detection kit was from Perkin Elmer) were pre-incubated for 1 hour with an antibody to the product methyl mark (Supplementary Table 1) and the presence of biotin-H3-product was detected by addition of 5 µl of the pre-incubated AlphaScreen beads (final concentrations of 0.02 mg/ml with respect to acceptor and donor beads). Detection was allowed to proceed for 2 hour at room temperature and the assay plates read in a BMG Labtech Pherastar FS plate reader (excitation, 680 nm; emission, 570 […]
(§5) IC50(t) = Ki (1 + K ) . ( η . k .t − 1) (1) […]
(§6) Table S4. AlphaScreen assay conditions for the KDM selectivity panel

KDM5C = KDM5C (Homo sapiens, UniProt P41229); test: KDM AlphaScreen selectivity panel, KDM5C; format: biochemical; details: for IC50: AlphaScreen after 120 min pre-incubation, read-out: KDM IC50 5C; for SI over KDM5B, 5C: KDM5C IC50/KDM5B IC50
Sequence of KDM5C (P41229 whole entry): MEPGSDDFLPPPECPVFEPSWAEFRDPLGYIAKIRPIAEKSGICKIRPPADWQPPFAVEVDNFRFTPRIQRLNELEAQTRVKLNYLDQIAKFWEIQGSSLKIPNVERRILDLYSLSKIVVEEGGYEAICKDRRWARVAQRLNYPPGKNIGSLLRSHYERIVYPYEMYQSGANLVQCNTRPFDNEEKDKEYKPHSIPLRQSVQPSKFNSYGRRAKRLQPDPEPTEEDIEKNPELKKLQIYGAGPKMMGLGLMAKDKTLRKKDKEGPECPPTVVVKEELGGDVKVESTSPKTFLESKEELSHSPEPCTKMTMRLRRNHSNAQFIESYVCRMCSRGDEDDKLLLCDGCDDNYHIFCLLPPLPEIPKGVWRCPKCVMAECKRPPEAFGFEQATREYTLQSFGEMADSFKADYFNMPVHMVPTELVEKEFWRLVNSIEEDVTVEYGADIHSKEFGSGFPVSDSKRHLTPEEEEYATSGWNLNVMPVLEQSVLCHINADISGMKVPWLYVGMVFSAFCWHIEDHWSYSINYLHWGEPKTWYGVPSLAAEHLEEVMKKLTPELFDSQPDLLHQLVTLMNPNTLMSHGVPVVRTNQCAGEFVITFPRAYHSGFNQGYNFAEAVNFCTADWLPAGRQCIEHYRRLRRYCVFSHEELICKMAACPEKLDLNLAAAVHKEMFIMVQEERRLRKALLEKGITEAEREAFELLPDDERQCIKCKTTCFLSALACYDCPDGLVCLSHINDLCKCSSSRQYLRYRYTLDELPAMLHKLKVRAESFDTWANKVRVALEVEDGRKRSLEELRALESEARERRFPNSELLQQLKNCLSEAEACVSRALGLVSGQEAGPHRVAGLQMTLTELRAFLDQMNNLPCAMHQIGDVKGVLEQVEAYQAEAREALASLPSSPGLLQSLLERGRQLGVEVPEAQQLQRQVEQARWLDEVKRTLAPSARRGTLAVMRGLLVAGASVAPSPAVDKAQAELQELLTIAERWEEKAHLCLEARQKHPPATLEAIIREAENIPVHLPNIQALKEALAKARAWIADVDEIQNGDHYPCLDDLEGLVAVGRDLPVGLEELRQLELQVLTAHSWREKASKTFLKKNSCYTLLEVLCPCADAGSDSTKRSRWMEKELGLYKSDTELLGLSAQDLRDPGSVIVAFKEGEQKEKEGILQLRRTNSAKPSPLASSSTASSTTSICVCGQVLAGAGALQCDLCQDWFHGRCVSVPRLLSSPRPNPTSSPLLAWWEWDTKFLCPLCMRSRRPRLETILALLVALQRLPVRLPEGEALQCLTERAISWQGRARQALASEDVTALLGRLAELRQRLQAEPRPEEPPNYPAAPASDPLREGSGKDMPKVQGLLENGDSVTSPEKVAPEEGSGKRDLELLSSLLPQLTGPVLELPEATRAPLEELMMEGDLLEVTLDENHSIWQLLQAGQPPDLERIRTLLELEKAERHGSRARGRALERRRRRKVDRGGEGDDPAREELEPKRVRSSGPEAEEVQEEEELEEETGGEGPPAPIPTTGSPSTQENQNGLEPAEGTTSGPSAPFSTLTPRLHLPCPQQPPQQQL
Protocol: as §1, §2, §3, §4, §5, §6

IC50 (KDM4A) [nM] | IC50 (KDM5C) [nM] | SI over KDM5B, 4A (KDM4A) | SI over KDM5B, 5C (KDM5C) | selectivity over KDM4A (KDM4A) [fold] | selectivity for KDM5B over KDM5C (KDM5C) | Structure (SMILES)
1200 ± 100 | 778 ± 37 |  |  |  |  | C=CC(=O)Nc1cccc(CN(C)CCc2cnn(-c3nccc4c(=O)[nH]cnc34)c2)c1 [Compound 4]
400 ± 100 | 394 ± 11 | 41 | 40 |  |  | CN(CCc1cnn(-c2nccc3c(=O)[nH]cnc23)c1)Cc1cccc(NC(=O)CCl)c1 [Compound 5]
2400 ± 100 | 4570 ± 341 |  |  |  |  | CN(C)C/C=C/C(=O)Nc1cccc(CN(C)CCc2cnn(-c3nccc4c(=O)[nH]cnc34)c2)c1 [Compound 6]
4600 ± 100 | 571 ± 34 | 653 | 81 | > 500 |  | CC(C)c1c(-c2cnn(CCNC(=O)CCl)c2)[nH]c2c(C#N)cnn2c1=O [Compound 7]
4600 ± 400 | 2192 ± 19 | 71 | 34 |  |  | C=CC(=O)NCCOc1ccc(-c2[nH]c3c(C#N)cnn3c(=O)c2C(C)C)cc1 [Compound 9]
12700 ± 600 | 1270 ± 276 | 742 | 74 | > 500 |  | C=CC(=O)N1CCC(n2cc(-c3[nH]c4c(C#N)cnn4c(=O)c3C(C)C)cn2)CC1 [Compound 10]
4300 ± 100 | 1040 ± 42 | 479 | 115 |  | more than 100 fold | CC(C)c1c(-c2cnn(C3CCN(C(=O)CCl)CC3)c2)[nH]c2c(C#N)cnn2c1=O [Compound 11]
